The values below come from patent publication US9987399B2, “Non-biodegradable stent comprising a biodegradable coating and method of coating the same” (Nanyang Technological University, priority 2007, dated 2018).

In this assay the test system is platelets (platelet rich plasma). As to the kind of experiment: In vitro thrombogenicity/platelet adhesion, dynamic method with I-125 labeled PRP. Format: cell-based, Human. The conditions noted are these: 10% loading in PLGA 80/20 coating on metal strips, 2 hours perfusion at 40 mL min^−1; FIG. 5. On the procedure: Metal strips with coatings of PLGA 80/20 containing varying amounts of triflusal (4, 7 and 10 wt %) were tested for thrombogenicity/platelet adhesion using a dynamic method. Human blood was collected and anti-coagulated. Platelet rich plasma (PRP) was then prepared from the blood, and labeled with radioactive iodine, I-125. The test samples were exposed to this labeled PRP for 2 hours under perfusion at a flow rate of 40 mL min^−1. Radioscintigraphy was then used on the washed and rinsed metal-coated strips, to count the number of adhered platelets.

`CC(=O)Oc1cc(C(F)(F)F)ccc1C(=O)O` [triflusal]: the platelet adhesion entry is “effective at reducing platelet adhesion”.
